Assay results from patent US20040077687A1, “Thiazolmines and their use as tgf-beta inhibitors” (priority 2003, published 2004).

Experiments:
[1] = test system: TGF-β signalling (PAI-1 promoter luciferase reporter in HepG2 cells); assay: Assay 1: PAI-1 promoter firefly luciferase reporter in HepG2 cells exposed to TGF-β; settings: for IC50: Homo sapiens, HepG2, read-out: IC50 value in Assay 1
Description: The assay was performed in HepG2 cells stably transfected with the PAI-1 promoter (known to be a strong TGF-β responsive promoter) linked to a luciferase (firefly) reporter gene. The compounds were selected on their ability to inhibit luciferase activity in cells exposed to TGF-β. In addition cells were transfected with a second luciferase (Renilla) gene which was not driven by a TGF-β responsive promoter and was used as a toxicity control.
(96 well-)microplates are seeded, using a multidrop apparatus, with the stably transfected cell line at a concentration of 35000 cells per well in 200 μl of serum-containing medium. These plates are placed in a cell incubator.
18 to 24 hours later (Day 2), cell-incubation procedure is launched. Cells are incubated with TGF-β and a candidate compound (TGF-β inhibitor) at concentrations in the range 50 nM to 10 μM (final concentration of DMSO 1%). The final concentration of TGF-β (rhTGFβ1) used in the test is 1 ng/mL. […] The final volume of the test reaction is 150 μl. Each well contains only one candidate compound and its effect on the PAI-1 promoter is monitored.
Columns 11 and 12 are employed as controls. Column 11 contains 8 wells in which the cells are incubated in the presence of TGF-β, without a candidate compound. Column 11 is used to determine the ‘reference TGF-β induced firefly luciferase value’ against which values measured in the test wells (to quantify inhibitory activity) may be compared. In wells A12 to D12, cells are grown in medium without TGF-β. The firefly luciferase values obtained from these positions are representive of the ‘basal firefly luciferase activity’. In wells E12 to H12, cells are incubated in the presence of TGF-β and 500 μM CPO (Cyclopentenone, Sigma), a cell toxic compound.
12 to 18 hours later (day 3), the luciferase quantification procedure is launched. The following reactions are performed using reagents obtained from a Dual Luciferase Assay Kit (Promega). Cells are washed and lysed with the addition of 10 μl of passive lysis buffer (Promega). Following agitation (15 to 30 mins), luciferase activities of the plates are read in a dual-injector luminometer (BMG lumistar). For this purpose, 50 μl of luciferase assay reagent and 50 μl of ‘Stop & Glo’ buffer are injected sequentially to quantify the activities of both luciferases. The mean Luciferase activity value obtained in wells A11 to H11 (Column 11, TGF-βonly) is considered to represent 100% and values obtained in wells A12 to D12 (cells in medium alone) give a basal level (0%). For each of the compounds tested, a concentration response curve is constructed from which an IC50 value can be determined graphically.

CCOc1ccc(-c2cc(-c3sc(N)nc3-c3ccccn3)ccn2)cc1 [Example 5, 5-[2-(4-Ethoxyphenyl)pyridin-4-yl]-4-pyridin-2-yl-1,3-thiazol-2-amine]
melting point: 246 °C
IC50 [1]: ≤ 5 µM

CCc1ccc(-c2cc(-c3sc(N)nc3-c3ccccn3)ccn2)cc1 [Example 4, 5-[2-(4-Ethylphenyl)pyridin-4-yl]-4-pyridin-2-yl-1,3-thiazol-2-amine]
melting point: 238 °C
IC50 [1]: ≤ 5 µM

Nc1nc(-c2ccccn2)c(-c2ccnc(-c3ccsc3)c2)s1 [Example 6, 5-[2-(Thiophen-3-yl)pyridin-4-yl]-4-pyridin-2-yl-1,3-thiazol-2-amine]
melting point: 244 °C
IC50 [1]: ≤ 5 µM

Nc1nc(-c2ccccn2)c(-c2ccnc(-c3ccc(Cl)cc3)c2)s1 [Example 1, 5-[2-(4-Chlorophenyl)pyridin-4-yl]-4-pyridin-2-yl-1,3-thiazol-2-amine]
melting point: 256 to 257 °C
IC50 [1]: ≤ 5 µM

O=C1C=CCC1 [CPO, Cyclopentenone, reference compound]
firefly and renilla luciferase activities relative to column 11 (TGF-β only); toxicity control ([1]; 500 μM CPO in the presence of TGF-β, HepG2 reporter cells): around 50%

COc1ccc(-c2cc(-c3sc(N)nc3-c3ccccn3)ccn2)cc1 [Example 2, 5-[2-(4-Methoxyphenyl)pyridin-4-yl]-4-pyridin-2-yl-1,3-thiazol-2-amine]
melting point: 222 °C
IC50 [1]: ≤ 5 µM

Nc1nc(-c2ccccn2)c(-c2ccnc(-c3ccc(F)cc3)c2)s1 [Example 3, 5-[2-(4-Fluorophenyl)pyridin-4-yl]-4-pyridin-2-yl-1,3-thiazol-2-amine]
melting point: 250 °C
IC50 [1]: ≤ 5 µM
